These results are taken from US11591367B2, “Melanocortin-1-receptor agonists” (DSM IP ASSETS B.V., priority 2016, dated 2023).

Residues, ends and D or L forms follow the SMILES beside them.

T1 sequence (Q01726 whole entry): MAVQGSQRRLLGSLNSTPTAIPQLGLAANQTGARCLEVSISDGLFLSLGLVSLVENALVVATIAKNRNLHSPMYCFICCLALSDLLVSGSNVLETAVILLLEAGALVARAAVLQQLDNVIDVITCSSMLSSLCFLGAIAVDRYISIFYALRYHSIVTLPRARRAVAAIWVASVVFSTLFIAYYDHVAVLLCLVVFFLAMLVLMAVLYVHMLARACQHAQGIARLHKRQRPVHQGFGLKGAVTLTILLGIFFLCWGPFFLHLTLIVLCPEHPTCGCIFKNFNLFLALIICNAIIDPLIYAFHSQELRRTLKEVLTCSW

The first assay has as its target T1, human MC1 receptor (Homo sapiens, UniProt Q01726).
T1 construct: expressed in transfected cells; host or cells: Chinese Hamster Ovary (CHO) cells
Kind of assay: Human MC1 receptor cAMP HTRF functional assay (MC1R stimulation). Type of assay: cell-based.
Details: not given
The protocol:
Human MC1 Receptor Using cAMP HTRF Functional Assay:
Twenty seven (27) compounds were tested for agonist activity at the human MC1 receptor using cAMP HTRF (homogeneous time-resolved fluorescence) assays at eight (8) concentrations and in duplicate.
On the day of experimentation, compounds were tested at several concentrations in duplicate wells (n=2) to obtain a dose-response curve and an estimated EC50 value. Values obtained for the reference compound were compared to historical values obtained from the same receptor and used to validate the experimental session. For replicate determinations, the maximum variability tolerated in the test was of +/−20% around the average of the replicates.
Assay: After cultivation Chinese Hamster Ovary (CHO) cells were detached and incubated at a specific cell density in assay buffer. At this stage the CHO cells express the human MC1R at their surface. Agonist compounds were added at determined concentration and incubated for 30 min. Cells were lysed in detection buffer in order to extract cAMP. The amount of cAMP within the cells correlates with GPCR-activity, meaning that in this assay it correlates with MC1R-activity. cAMP was detected in a competitive HTRF assay for binding to an anti-cAMP-antibody.
The compound `CCCN(CCC)C(=O)[C@H](Cc1c[nH]c2ccccc12)NC(=O)[C@H](CCCNC(=N)N)NC(=O)[C@@H](Cc1ccccc1)NC(=O)[C@@H](Cc1c[nH]cn1)NC(=O)CNC(=O)c1ccccc1` [Compound R1, Bz-Gly-D-His-D-Phe-Arg-Trp-N(Propyl)2 *2TFA, reference compound] (HELM PEPTIDE1{[O=C(c1ccccc1)[*:2]].G.[dH].[dF].R.W.[CCCN(CCC)[*:1]]}$$$$V2.0) registered an EC50 of 36 nM.
Still for that read-out and setting: the figure for `CCCN(CCC)C(=O)[C@H](Cc1c[nH]c2ccccc12)NC(=O)[C@@H](CCCNC(=N)N)NC(=O)[C@@H](Cc1ccccc1)NC(=O)[C@H](Cc1c[nH]cn1)NC(=O)CNC(=O)c1ccccc1` [Compound R3, Bz-Gly-His-D-Phe-D-Arg-Trp-N(Propyl)2 *2TFA, reference compound] (HELM PEPTIDE1{[O=C(c1ccccc1)[*:2]].G.H.[dF].[dR].W.[CCCN(CCC)[*:1]]}$$$$V2.0) is 70.1 nM.
`CCCN(CCC)C(=O)[C@H](Cc1c[nH]c2ccccc12)NC(=O)[C@H](CCCNC(=N)N)NC(=O)[C@H](Cc1ccccc1)NC(=O)[C@H](Cc1c[nH]cn1)NC(=O)CNC(=O)c1ccccc1` [Compound R2, Bz-Gly-His-Phe-Arg-Trp-N(Propyl)2 *2TFA, reference compound] (HELM PEPTIDE1{[O=C(c1ccccc1)[*:2]].G.H.F.R.W.[CCCN(CCC)[*:1]]}$$$$V2.0) returned an EC50 of 51.4 nM.

The same assay, now with this note: agonist activity; CHO cells expressing human MC1R; 30 min incubation; 8 concentrations in duplicate; read-out: EC50 [nM], MC1R stimulation assay.
Regarding `CCCN(CCC)C(=O)[C@H](Cc1c[nH]c2ccccc12)NC(=O)[C@H](CCCNC(=N)N)NC(=O)[C@@H](Cc1ccccc1)NC(=O)[C@H](Cc1c[nH]cn1)NC(=O)CNC(=O)c1ccccc1` [(I-e), Bz-Gly-His-D-Phe-Arg-Trp-N(Propyl)2 *2TFA] (HELM PEPTIDE1{[O=C(c1ccccc1)[*:2]].G.H.[dF].R.W.[CCCN(CCC)[*:1]]}$$$$V2.0), the concentration giving a half-maximal response (EC50) was found to be 0.88 nM.
Turning to `N=C(N)NCCC[C@H](NC(=O)[C@@H](Cc1ccccc1)NC(=O)[C@H](Cc1c[nH]cn1)NC(=O)CNC(=O)c1ccccc1)C(=O)N[C@H](Cc1ccccc1)C(N)=O` [(I-g), Bz-Gly-His-D-Phe-Arg-D-Phe-NH2 *2TFA] (HELM PEPTIDE1{[O=C(c1ccccc1)[*:2]].G.H.[dF].R.[dF].[am]}$$$$V2.0), the EC50 is 1.79 nM.
Same read-out and setting: the figure for `N=C(N)NCCC[C@H](NC(=O)[C@@H](Cc1ccccc1)NC(=O)[C@H](Cc1c[nH]cn1)NC(=O)CNC(=O)c1ccccc1)C(=O)N[C@@H](Cc1c[nH]c2ccccc12)C(N)=O` [(I-a), Bz-Gly-His-D-Phe-Arg-Trp-NH2 *2TFA] (HELM PEPTIDE1{[O=C(c1ccccc1)[*:2]].G.H.[dF].R.W.[am]}$$$$V2.0) is 0.041 nM; for `N=C(N)NCCC[C@H](NC(=O)[C@@H](Cc1ccccc1)NC(=O)[C@H](Cc1cnc[nH]1)NC(=O)CNC(=O)c1ccccc1)C(=O)N(CCc1c[nH]c2ccccc12)CC(N)=O` [(I-i), Bz-Gly-His-D-Phe-Arg-(N-IndEt)Gly-NH2 *2TFA] (HELM PEPTIDE1{[O=C(c1ccccc1)[*:2]].G.H.[dF].R.[O=C(CN(CCc1c[nH]c2ccccc12)[*:1])[*:2]].[am]}$$$$V2.0) it is 4.4 nM; for `NCC[C@H](NC(=O)[C@@H](Cc1ccccc1)NC(=O)[C@H](Cc1c[nH]cn1)NC(=O)CNC(=O)c1ccccc1)C(=O)N[C@@H](Cc1c[nH]c2ccccc12)C(N)=O` [(I-h), Bz-Gly-His-D-Phe-Dab-Trp-NH2 *2TFA] (HELM PEPTIDE1{[O=C(c1ccccc1)[*:2]].G.H.[dF].[Dab].W.[am]}$$$$V2.0) it is 7.51 nM.
As to `N=C(N)NCCC[C@H](NC(=O)[C@@H](Cc1ccccc1)NC(=O)[C@H](Cc1c[nH]cn1)NC(=O)CNC(=O)c1ccccc1)C(=O)N[C@@H](Cc1ccc2ccccc2c1)C(N)=O` [(I-c), Bz-Gly-His-D-Phe-Arg-L-2-NaphAla-NH2 *2TFA] (HELM PEPTIDE1{[O=C(c1ccccc1)[*:2]].G.H.[dF].R.[O=C([C@H](Cc1ccc2ccccc2c1)N[*:1])[*:2]].[am]}$$$$V2.0), the EC50 was found to be 0.11 nM.
Take `N=C(N)NCCC[C@H](NC(=O)[C@@H](Cc1ccccc1)NC(=O)[C@H](Cc1c[nH]cn1)NC(=O)CNC(=O)c1ccccc1)C(=O)NCCc1c[nH]c2ccccc12` [Compound R4, Bz-Gly-His-D-Phe-Arg-Tryptamide *2TFA, reference compound] (HELM PEPTIDE1{[O=C(c1ccccc1)[*:2]].G.H.[dF].R.[c1ccc2c(CCN[*:1])c[nH]c2c1]}$$$$V2.0): the EC50 was determined as 42.9 nM.
On the same count and under the same terms, the figure for `N=C(N)NCCC[C@H](NC(=O)[C@@H](Cc1ccccc1)NC(=O)[C@H](Cc1c[nH]cn1)NC(=O)CNC(=O)c1ccccc1)C(=O)N[C@H](Cc1ccc2ccccc2c1)C(N)=O` [(I-b), Bz-Gly-His-D-Phe-Arg-D-2-NaphAla-NH2 *2TFA] (HELM PEPTIDE1{[O=C(c1ccccc1)[*:2]].G.H.[dF].R.[O=C([C@@H](Cc1ccc2ccccc2c1)N[*:1])[*:2]].[am]}$$$$V2.0) is 0.25 nM.
With `CCCCCCCCNC(=O)[C@H](Cc1c[nH]c2ccccc12)NC(=O)[C@H](CCCNC(=N)N)NC(=O)[C@@H](Cc1ccccc1)NC(=O)[C@H](Cc1c[nH]cn1)NC(=O)CNC(=O)c1ccccc1` [(I-f), Bz-Gly-His-D-Phe-Arg-Trp-NHOctyl *2TFA] (HELM PEPTIDE1{[O=C(c1ccccc1)[*:2]].G.H.[dF].R.W.[CCCCCCCCN[*:1]]}$$$$V2.0), the concentration giving a half-maximal response (EC50) amounted to 1.06 nM.
The same measure, in the same setting: the figure for `CCCN(CCC)C(=O)[C@@H](Cc1c[nH]c2ccccc12)NC(=O)[C@H](CCCNC(=N)N)NC(=O)[C@@H](Cc1ccccc1)NC(=O)[C@H](Cc1c[nH]cn1)NC(=O)CNC(=O)c1ccccc1` [(I-d), Bz-Gly-His-D-Phe-Arg-D-Trp-N(Propyl)2 *2TFA] (HELM PEPTIDE1{[O=C(c1ccccc1)[*:2]].G.H.[dF].R.[dW].[CCCN(CCC)[*:1]]}$$$$V2.0) is 0.42 nM.

A further assay relates to Skin samples (from abdominal plastic surgery). Kind of assay: Ex-vivo skin pigmentation trial (melanin amount, Fontana-Masson stain). Format: cell-based. The note with it: 4 μl/200 μM of active applied topically daily; melanin amount at day 6; % increase versus untreated. The protocol: Skin samples (from abdominal plastic surgery) have been cut in pieces of approx. 8×3 mm (Øx thickness) and were cultured up to day 6 in an air-liquid interface in a perforated ring of stainless steel in contact with a culture medium (modified Williams'E medium), the culture medium has been renewed every three days. Six skin specimens have been used for each treatment. Each test sample (4 μl/200 μM of active) has been applied topically on top of each piece after gentle cleaning of the surface with a cotton pad followed by covering with a 6 ø mm delivery membrane, which procedure has been repeated daily. After 6 days of incubation, the melanin amount was assessed on twelve skin sections for each treatment by staining using a modified Fontana-Masson stain. The amount of melanin present in each slide has been evaluated by estimating the intensity and the distribution of grey tone: 8-bit grey-scale images for each treatment have been captured at the microscope. Then the colour space of the images have been transformed from RGB into L*a*b* images and each pixel of the picture has been evaluated according to its L* values. The obtained results have been transformed in ranks of L* and then normalized on the ratio between the selected area and the area of the slide. The result is indicated as % increase versus untreated at day 6.
As to `N=C(N)NCCC[C@H](NC(=O)[C@@H](Cc1ccccc1)NC(=O)[C@H](Cc1c[nH]cn1)NC(=O)CNC(=O)c1ccccc1)C(=O)N[C@@H](Cc1c[nH]c2ccccc12)C(N)=O` [(I-a), Bz-Gly-His-D-Phe-Arg-Trp-NH2 *2TFA] (HELM PEPTIDE1{[O=C(c1ccccc1)[*:2]].G.H.[dF].R.W.[am]}$$$$V2.0), the “skin pigmentation increase versus untreated” value is “+18%”.
Still for that read-out and setting: the entry for `CCCN(CCC)C(=O)[C@@H](Cc1c[nH]c2ccccc12)NC(=O)[C@H](CCCNC(=N)N)NC(=O)[C@@H](Cc1ccccc1)NC(=O)[C@H](Cc1c[nH]cn1)NC(=O)CNC(=O)c1ccccc1` [(I-d), Bz-Gly-His-D-Phe-Arg-D-Trp-N(Propyl)2 *2TFA] (HELM PEPTIDE1{[O=C(c1ccccc1)[*:2]].G.H.[dF].R.[dW].[CCCN(CCC)[*:1]]}$$$$V2.0) is “+21%”.
